Reference: US11903916B2, “Methods of using probenecid for treatment of coronavirus infections” (University of Georgia Research Foundation, Inc., priority 2020, dated 2024)
Where two headings read alike, the source gives them in different places.

What was measured:
SARS-CoV-2 [1] = type: cell-based; details: for reduction in plaque formation compared to DMSO treated infected control: post-treatment after 1 hour infection, Vero E6, MOI 0.01, 4 days, FIG. 3
SARS-CoV-2 [2] = type: cell-based; details: for reduction in plaque formation compared to DMSO treated infected control: 24 h pre-treatment, Vero E6, MOI 0.01, 4 days

CCCN(CCC)S(=O)(=O)c1ccc(C(=O)O)cc1 [Probenecid, 4-[(dipropylamino)sulfony1] benzoic acid]
viral titer/plaque formation (SARS-CoV-2 [1]; post-treatment at the concentrations tested): significantly reduces viral titer/plaque formation | reduction in plaque formation compared to DMSO treated infected control (SARS-CoV-2 [1]; probenecid 0.0001 μM): ~40% | reduction in plaque formation compared to DMSO treated infected control (SARS-CoV-2 [1]; probenecid 5 μM): ~90% | viral titer/plaque formation (SARS-CoV-2 [2]; 24 hour pretreatment at the concentrations tested): significantly reduces viral titer/plaque formation | reduction in plaque formation compared to DMSO treated infected control (SARS-CoV-2 [2]; probenecid 0.0001 μM, another experiment, FIG. 2): ~50% | reduction in plaque formation compared to DMSO treated infected control (SARS-CoV-2 [2]; probenecid 0.1 μM, FIG. 1): ~72%
